Assay results as given in patent publication US11577248B2, “Biological membrane-based sensor” (McMaster University, priority 2017, dated 2023).

How the values were obtained:
[1] = tested on: human red blood cell membranes; experiment: HBLOC sensor: cyclic voltammetry with ferricyanide on RBC membrane-coated nanostructured gold electrodes; settings: ferricyanide redox indicator, FIG. 10
Source text: Inventors have developed a method which isolates human red blood cells on a silicon chip for use as a safe and quantitative test for hemolytic bacteria. To develop our human blood cells on a chip, a sample of human blood is exposed to a hypotonic solution which causes the RBC's to burst and empty their contents. A series of sonication and washing steps are then applied to isolate only the RBC membrane, and to remove all hemoglobin and other contaminants. The result is a solution of empty membrane sacks known as RBC “ghosts”. This solution is then applied to sensors and allowed to slowly dry, leaving behind stacked sheets of RBC membrane. The sensors use nanostructured gold electrodes, functionalized for the application of the RBC membranes and maximizing the surface area for increased sensitivity of the tests. The coated electrodes are then used as part of a 3-electrode electrochemical cell, where any damage to the cell membrane allows a redox-indicator in solution to access the electrode surface. Under cyclic voltammetry or chronoamperometry measurements the reduction/oxidation of the indicator molecule gives rise to a current that is proportional to the amount of membrane damage. […] Membrane damage was quantitatively measured using ferricyanide as the redox indicator and cyclic voltammetry. […]

RBC membranes = experiment: X-ray diffraction of RBC/aspirin complexes (multi-lamellar RBC membranes on silicon wafers); set-up: species or system human
Source text: X-ray scattering data was obtained using the Biological Large Angle Diffraction Experiment (BLADE) in the Laboratory for Membrane and Protein Dynamics at McMaster University. BLADE uses a 9 kW (45 kV, 200 mA) CuKα rotating anode at a wavelength of 1.5418 Å. Both source and detector are mounted on movable arms such that the membranes stay horizontal during the measurements. Focusing multi-layer optics provides a high intensity parallel beam with monochromatic X-ray intensities up to 10^10 counts/(mm^2·s). This beam geometry provides optimal illumination of the solid supported membrane samples to maximize the scattering signal. Note that there is no risk of sample damage using this in-house technique because of the large beam size and relatively low intensity of the X-ray beam as compared to synchrotron sources. The result of an X-ray experiment is a 2-dimensional intensity map of a large area of the reciprocal space, as sketched in FIG. 5. The corresponding real-space length scales are determined by d=2π/ ? and cover length scales from about 2.5 to 100 Å. All scans were measured at 28° C. and 50% relative humidity (RH) hydration. As depicted in FIG. 5a), the wafers were oriented in the X-ray diffractometer, such that the q∥-axis probed lateral structure, parallel to the wafer surface, and the perpendicular axis, qz, probed out-of-plane structure, perpendicular to the substrate. The out-of-plane structure of the membrane was determined using specular reflectivity. The relative electron density, ρ(z), is approximated by a 1-dimensional Fourier analysis. [formula] N is the highest order of the Bragg peaks observed in the experiment. The integrated peak intensities, I, are multiplied by q, to receive the form factors, F(q,). The bilayer form factor F(qz), which is in general a complex quantity, is real-valued in the case of centro-symmetry. The phase problem of crystallography, therefore, simplifies to the sign problem F(qz)=±|F(qz)| and the phases, ν, can only take the values±1. The phases, ν, are needed to reconstruct the electron density profile from the scattering data following Eq. (1). When the membrane form factor F(qz) is measured at several qz values, a continuous function, T(qz), which is proportional to F(qz), can be fitted to the data. Once an analytical expression for T(qz) has been determined from fitting the experimental peak intensities, the phases ν, can be assessed from T(qz). The phase array ν, =[−1−1 1−1 1] was used for all samples. The electron densities determined by Eq. (1) are on a relative scale. In order to compare the electron densities in FIGS. 6c) and 7c), ρ in the membrane centre at z=0 was set to 0 and the electron density at the boundaries (z values between 25 and 30 Å depending on the lamellar spacing), which probe the water layer between the stacked membranes, were scaled to the electron density of water of ρ=0.33 e^−/Å^3. In order to prepare complexes of RBC membranes containing increasing amounts of aspirin, a solution of 9 mg/mL acetylsalicylic acid (molecular weight 180 g/mol) in 18.2 MΩ·cm water was prepared. 2 μL, 3 μL, 4 μL, 5 μL, and 6 μL of this solution were added to 100 μL of the final ghosts solution resulting in acetylsalicylic acid concentrations of 1 mM, 1.5 mM, 2 mM, 2.5 mM and 3 mM. The resulting solutions were applied onto silicon wafers and dried slowly and incubated for 5 days following the above protocol. The in-plane peaks are the result of a hexagonal packing of the lipid tails in the hydrophobic membrane core (planar group p6). The distance between two acyl tails is determined to be α=4π/(√3q), where q∥ is the position of the corresponding correlation peak. The area per lipid chain is obtained to AT=(√3/2) α^2 Lipid tail distances in lo and ld domains and lipid tail areas are listed in Table 1. […]

SMILES	membrane damage: reduction and oxidation peak currents [1]	ASA concentration at which lamellar spacing and membrane thickness of lo and ld domains coincide (RBC membranes; 0-3 mM ASA series) [mM]	effect on lamellar spacing and membrane thickness of ld lipid domains (RBC membranes; 1-3 mM ASA)	overall lamellar spacing of the RBC membranes (RBC membranes; ASA concentration of 2.5 mM) [Å]	overall membrane thickness (RBC membranes; ASA concentration of 2.5 mM) [Å]	domain preference of the interaction with RBC membranes (RBC membranes; electron densities of lo and ld domains, 1 mM ASA)	effect on lipid spacing in the ld domain (RBC membranes; in presence of aspirin)	distance between lipids alo in lo domains (RBC membranes; in presence of aspirin, increase from 4.69 Å in pure RBC membranes) [Å]	lipid tail area in lo domains (RBC membranes; in presence of aspirin, increase from 19.04 Å^2 in pure RBC membranes) [Å^2]	effect on lipid domain sizes (RBC membranes; increasing ASA content)	effect on peptide domain size (RBC membranes; increasing ASA content)	location of aspirin in the membrane (|z| of increased electron density, head group region) (RBC membranes; lo lipid domains, RBC membranes + 1 mM ASA vs pure RBC membrane) [Å]
CCCCCCCCCCCCOS(=O)(=O)[O-].[Na+] [SDS, sodium dodecyl sulfate]	increases in the reduction and oxidation peak currents											
CC(=O)Oc1ccccc1C(=O)O [aspirin, acetylsalicylic acid]		2.5	not affected	53.4	41.8	preferably interacts with lo regions	unchanged	4.85	20.37	approximately independent of aspirin concentration	slight increase in peptide domain size	~22.8
